Drawing on US8372855B2, “Cyclohexyloxy-substituted heterocyclics, medicines containing these compounds and method for the production thereof” (Boehringer Ingelheim International GmbH, priority 2008, dated 2013), this text covers IC50 for eight molecules.

The IC50 is the concentration at which inhibition is half-maximal.

The assay deals with T1, human EGF-R (Homo sapiens, UniProt P00533).
T1 construct: expressed in transfected cells
T1 sequence (P00533 25-1210): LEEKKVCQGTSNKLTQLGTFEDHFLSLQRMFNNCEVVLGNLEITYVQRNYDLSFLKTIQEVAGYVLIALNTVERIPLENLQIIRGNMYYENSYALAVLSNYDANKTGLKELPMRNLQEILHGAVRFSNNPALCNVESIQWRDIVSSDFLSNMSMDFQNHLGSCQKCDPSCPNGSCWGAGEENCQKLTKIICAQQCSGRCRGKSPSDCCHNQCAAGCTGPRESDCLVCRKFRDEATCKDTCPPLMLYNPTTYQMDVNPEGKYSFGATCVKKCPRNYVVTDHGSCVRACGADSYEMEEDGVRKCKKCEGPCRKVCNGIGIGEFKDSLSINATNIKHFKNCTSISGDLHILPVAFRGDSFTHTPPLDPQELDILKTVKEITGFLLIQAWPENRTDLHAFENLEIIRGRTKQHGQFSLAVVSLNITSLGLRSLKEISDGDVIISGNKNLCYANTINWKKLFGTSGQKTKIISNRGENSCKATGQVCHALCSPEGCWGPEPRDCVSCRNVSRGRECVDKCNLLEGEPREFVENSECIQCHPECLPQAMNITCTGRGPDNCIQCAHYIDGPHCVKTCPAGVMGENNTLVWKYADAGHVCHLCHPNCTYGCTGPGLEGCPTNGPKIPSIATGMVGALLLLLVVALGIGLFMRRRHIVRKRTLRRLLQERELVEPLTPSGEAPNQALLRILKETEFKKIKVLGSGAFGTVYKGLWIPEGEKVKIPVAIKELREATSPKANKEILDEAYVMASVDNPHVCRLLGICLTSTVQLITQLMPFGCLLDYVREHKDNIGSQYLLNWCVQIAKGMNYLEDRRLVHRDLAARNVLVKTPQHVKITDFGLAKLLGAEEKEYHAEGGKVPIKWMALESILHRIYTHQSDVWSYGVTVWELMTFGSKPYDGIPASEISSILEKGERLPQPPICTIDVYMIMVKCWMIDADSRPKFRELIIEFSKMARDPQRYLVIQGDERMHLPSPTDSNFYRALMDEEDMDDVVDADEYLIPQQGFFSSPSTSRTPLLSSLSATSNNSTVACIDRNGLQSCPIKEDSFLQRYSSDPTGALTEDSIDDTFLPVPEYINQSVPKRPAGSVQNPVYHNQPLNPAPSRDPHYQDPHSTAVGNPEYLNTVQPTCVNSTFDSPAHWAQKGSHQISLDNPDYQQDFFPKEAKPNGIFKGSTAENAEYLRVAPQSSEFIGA
As to the kind of experiment: Inhibition of EGFR-dependent proliferation (EGF-stimulated murine haematopoietic cell line expressing human EGF-R, Cell Titer 96 AQueous assay). The settings on record: 20 ng/ml human EGF, 48 hours at 37° C. The assay is classed as cell-based. Here is the method: A murine haematopoietic cell line is genetically modified so as to express functional human EGF-R. The proliferation of this cell line can therefore be stimulated by EGF.
The test is carried out as follows:
The cells are cultivated in RPMI/1640 medium. The proliferation is stimulated with 20 ng/ml of human EGF (Promega). To investigate the inhibitory activity of the compounds according to the invention these compounds are dissolved in 100% dimethylsulphoxide (DMSO) and added to the cultures in various dilutions, the maximum DMSO concentration being 1%. The cultures are incubated for 48 hours at 37° C.
In order to determine the inhibitory activity of the compounds according to the invention the relative cell number is measured in O.D. units using the Cell Titer 96™ AQueous Non-Radioactive Cell Proliferation Assay (Promega). The relative cell number is calculated as a percentage of the control and the concentration of active substance which inhibits the proliferation of the cells by 50% (IC50) is derived therefrom.
In the case of `COc1cc2ncnc(Nc3cccc(Cl)c3F)c2cc1O[C@H]1CC[C@H](N2CCN(C3CCOCC3)C(=O)C2)CC1` [1(3), trans], 1.6 nM corresponded to half-maximal inhibition (IC50).

Regarding `CCCCN1CCN([C@H]2CC[C@H](Oc3cc4c(Nc5cccc(Cl)c5F)ncnc4cc3OC)CC2)CC1=O` [1(2), trans], the IC50 stood at 3.1 nM. This IC50 is about 1.9-fold higher than that of the molecule before.

With `CCN1CCN([C@H]2CC[C@@H](Oc3cc4c(Nc5cccc(Cl)c5F)ncnc4cc3OC)CC2)CC1=O` [1, cis], the IC50 came out at 7.1 nM.

For `COc1cc2ncnc(Nc3cccc(Cl)c3F)c2cc1O[C@H]1CC[C@@H](N2CCN(C3CCOCC3)C(=O)C2)CC1` [1(3), cis], the IC50 is 9.3 nM.

In turn, `COc1cc2ncnc(Nc3cccc(Cl)c3F)c2cc1O[C@H]1CC[C@@H](N2CCN(CC3CC3)C(=O)C2)CC1` [1(1), cis] gave an IC50 of 10.1 nM.

`CCCCN1CCN([C@H]2CC[C@@H](Oc3cc4c(Nc5cccc(Cl)c5F)ncnc4cc3OC)CC2)CC1=O` [1(2), cis] gave an IC50 of 12.1 nM. This IC50 and that of the molecule before are within 1.5-fold of each other.

Molecule `COc1cc2ncnc(Nc3cccc(Cl)c3F)c2cc1O[C@H]1CC[C@H](N2CCN(CC3CC3)C(=O)C2)CC1` [1(1), trans] came in with an IC50 of 1.7 nM.

`CCN1CCN([C@H]2CC[C@H](Oc3cc4c(Nc5cccc(Cl)c5F)ncnc4cc3OC)CC2)CC1=O` [1, trans] yielded an IC50 of 1.3 nM. The IC50 values of the last two molecules are within 1.5-fold of each other.
